PubChem BioAssay AID2060907 (Molecular Pharmacology Branch, DTP, NCI, 2025)

Test system: 388556-164-R-J1-PDC complex spheroid viability
Assay: Anticancer human tumor 388556-164-R-J1-PDC patient-derived colon adenocarcinoma cell line growth inhibition [RAS]
Details: for IC50: curve of first compound; for viability, T/C: stronger effect = lower value; active = viability on the fitted dose curve at most 10% of control; inactive = the rest
Method in brief: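 Agents were tested in combination matrices in half-log decrements from a top concentration at or near clinical Cmax (10 microM if undetermined). Targets were multi-cell spheroids of tumour lines plus HUVEC and MSC stromal cells.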

[1] = second compound 0.000949 µM, first compound 0.0316 µM
[2] = second compound 0.000949 µM, first compound 0.1 µM
[3] = second compound 0.000949 µM, first compound 0.316 µM
[4] = second compound 0.000949 µM, first compound 1 µM
[5] = second compound 0.000949 µM, first compound 3.16 µM
[6] = second compound 0.000949 µM, first compound 10 µM
[7] = second compound 0.003 µM, first compound 0.0316 µM
[8] = second compound 0.003 µM, first compound 0.1 µM
[9] = second compound 0.003 µM, first compound 0.316 µM
[10] = second compound 0.003 µM, first compound 1 µM
[11] = second compound 0.003 µM, first compound 3.16 µM
[12] = second compound 0.003 µM, first compound 10 µM
[13] = second compound 0.00949 µM, first compound 0.0316 µM
[14] = second compound 0.00949 µM, first compound 0.1 µM
[15] = second compound 0.00949 µM, first compound 0.316 µM
[16] = second compound 0.00949 µM, first compound 1 µM
[17] = second compound 0.00949 µM, first compound 3.16 µM
[18] = second compound 0.00949 µM, first compound 10 µM
[19] = second compound 0.03 µM, first compound 0.0316 µM
[20] = second compound 0.03 µM, first compound 0.1 µM
[21] = second compound 0.03 µM, first compound 0.316 µM
[22] = second compound 0.03 µM, first compound 1 µM
[23] = second compound 0.03 µM, first compound 3.16 µM
[24] = second compound 0.03 µM, first compound 10 µM
[25] = second compound 0.0949 µM, first compound 0.0316 µM
[26] = second compound 0.0949 µM, first compound 0.1 µM
[27] = second compound 0.0949 µM, first compound 0.316 µM
[28] = second compound 0.0949 µM, first compound 1 µM
[29] = second compound 0.0949 µM, first compound 3.16 µM
[30] = second compound 0.0949 µM, first compound 10 µM
[31] = second compound 0.3 µM, first compound 0.0316 µM
[32] = second compound 0.3 µM, first compound 0.1 µM
[33] = second compound 0.3 µM, first compound 0.316 µM
[34] = second compound 0.3 µM, first compound 1 µM
[35] = second compound 0.3 µM, first compound 3.16 µM
[36] = second compound 0.3 µM, first compound 10 µM
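Also: spheroids exposed to compound for 7 days before readout.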
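For viability, T/C in this document: 100% = DMSO vehicle control luminescence.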

CC1(O)CCCC1n1c(=O)c(C(F)F)cc2cnc(NC3CCN(S(C)(=O)=O)CC3)nc21 (centres undefined) + CCn1c(-c2cc(N3CCN(C)CC3)cnc2C(C)OC)c2c3cc(ccc31)-c1csc(n1)CC(NC(=O)C1CC1C)C(=O)N1CCCC(N1)C(=O)OCC(C)(C)C2
inactive: viability, T/C [1] 91.1% | viability, T/C [2] 94.2% | viability, T/C [3] 89.8% | viability, T/C [4] 91.6% | viability, T/C [5] 94.1% | viability, T/C [6] 61.7% | viability, T/C [7] 102% | viability, T/C [8] 91.7% | viability, T/C [9] 90% | viability, T/C [10] 78.7% | viability, T/C [11] 87.3% | viability, T/C [12] 62.8% | viability, T/C [13] 78.8% | viability, T/C [14] 75.4% | viability, T/C [15] 80.6% | viability, T/C [16] 77.9% | viability, T/C [17] 72.7% | viability, T/C [18] 48.8% | viability, T/C [19] 62.6% | viability, T/C [20] 58.5% | viability, T/C [21] 64.9% | viability, T/C [22] 59.4% | viability, T/C [23] 66% | viability, T/C [24] 44.2% | viability, T/C [25] 46.7% | viability, T/C [26] 44% | viability, T/C [27] 47.3% | viability, T/C [28] 42.4% | viability, T/C [29] 45.7% | viability, T/C [30] 35.1% | viability, T/C [31] 31.2% | viability, T/C [32] 37% | viability, T/C [33] 33.4% | viability, T/C [34] 38.8% | viability, T/C [35] 38.1% | viability, T/C [36] 24.1%
9450 nM: IC50 (second compound 0.00949 µM)
< 31.6 nM: IC50 (second compound 0.0949 µM) | IC50 (second compound 0.3 µM)
> 10000 nM: IC50 (second compound 0.000949 µM) | IC50 (second compound 0.003 µM) | IC50 (second compound 0.03 µM)

CCC(CC)c1cc(NC2CCC(N)C2)n2nccc2n1 (centres undefined) + CCn1c(-c2cc(N3CCN(C)CC3)cnc2C(C)OC)c2c3cc(ccc31)-c1csc(n1)CC(NC(=O)C1CC1C)C(=O)N1CCCC(N1)C(=O)OCC(C)(C)C2
1420 nM: IC50 (second compound 0.00949 µM)
active: viability, T/C [12] 9.94% | viability, T/C [36] 11%
1050 nM: IC50 (second compound 0.03 µM)
< 31.6 nM: IC50 (second compound 0.0949 µM) | IC50 (second compound 0.3 µM)
inactive: viability, T/C [1] 84.5% | viability, T/C [2] 104% | viability, T/C [3] 93.3% | viability, T/C [4] 90.6% | viability, T/C [5] 14.7% | viability, T/C [6] 10.2% | viability, T/C [7] 89.6% | viability, T/C [8] 85.2% | viability, T/C [9] 79.3% | viability, T/C [10] 81.1% | viability, T/C [11] 20.5% | viability, T/C [13] 82.7% | viability, T/C [14] 77.2% | viability, T/C [15] 73.7% | viability, T/C [16] 65.1% | viability, T/C [17] 15.4% | viability, T/C [18] 11.8% | viability, T/C [19] 56.5% | viability, T/C [20] 66.5% | viability, T/C [21] 57.9% | viability, T/C [22] 51.7% | viability, T/C [23] 10% | viability, T/C [24] 11.5% | viability, T/C [25] 40.5% | viability, T/C [26] 47% | viability, T/C [27] 47% | viability, T/C [28] 38.4% | viability, T/C [29] 9.16% | viability, T/C [30] 11.8% | viability, T/C [31] 28.7% | viability, T/C [32] 32.5% | viability, T/C [33] 32.4% | viability, T/C [34] 27.8% | viability, T/C [35] 5.58%
1850 nM: IC50 (second compound 0.000949 µM)
1810 nM: IC50 (second compound 0.003 µM)
